Consider 1 compound from ChEMBL document CHEMBL1130568, “Antibody-mediated regio- and enantioselective resolution of a glycerol derivative” (Bioorg Med Chem Lett, 1997).

The test can be described thus: Kinetic parameter for hydrolysis of 1 by Antibody 2D10 after addition of compound 12. The test is classed as ADME.

As for `CC(=O)O[C@@H](COCc1ccc([N+](=O)[O-])cc1)COP(=O)(O)CCCCCC(=O)O`, the Ki – broadly, the equilibrium dissociation constant of an inhibitor or competing ligand from its target – turned out to be 2.8 µM.
